Tested on: dissected embryonated cotyledon (DEC) explants of sweet sorghum hybrid varieties Liotian 1, Lioza 7050A and Liao Ji Za 1
Experiment: Regeneration of sorghum via organogenesis from dissected embryonated cotyledon (DEC) explants on stage 1-6 media
Format: cell-based, Sorghum bicolor (L.) Moench
Settings: for phenolic exudates from the base of the shoot buds: added to stage 2 medium
Experimental: Seeds of sweet sorghum (Sorghum bicolor (L.) Moench) hybrid varieties Liotian 1, Lioza 7050A and Liao Ji Za 1 were obtained from Chinese National Center for Sorghum Improvement, Shenyang City, 110161, Liaoning Province, P.R. China. The viable seeds were washed in chlorohexidine surgical wash (two drops in 100 ml of sterile water) for five minutes and soaked in sterile water for two days at 4° C. in refrigerator. Later these imbibed seeds were further surface sterilized in 10% clorox solution (commercial bleach) for 10 minutes followed by washes with sterile water for five times. To ensure complete sterility, these seeds were rinsed again with 70% alcohol for 90 seconds and subsequently washed with sterile water three times before used as explants.
The radical tissues were completely removed from the dissected embryonated cotyledon (DEC) explants. After six weeks of culture, the SCPC from stage 1 medium were further injured and transferred to stage 2 medium (Table 1) and stage 3 medium (Table 1) at five and ten-day interval for shoot bud induction. Subsequently, the shoot buds developed on stage 3 medium were split into 8-10 clumps with each clumps containing three to five shoots and transferred to stage 4 medium (Table 1) for further shoot induction followed by stage 5 medium (Table 1) for shoot elongation at two-week intervals respectively. The elongated shoot clumps with 2-3 shoots (4 cm height) from stage 5 medium were transferred to stage 6 medium (Table 1) for root induction. The well developed and rooted plantlets were transferred for hardening after two weeks of culture.
The pH of the medium was adjusted to 5.8 with 1N NaOH or 1N HCl prior to the addition of 0.8% phytoagar (stages 1-5 media) or 0.25% phytogel (stage 6 medium) and sterilized by autoclaving at 121° C. for 20 minutes. Approximately 20 ml of sterilized medium was dispensed into sterilized Petri dish (90×15 mm size, plastic polycarbonate, Canada). The chemicals used for media preparations were of analytical grade (Duchefa Biochemie, Haarlem, The Netherlands and Sigma Aldrich, Inc., St Louis, USA). All the cultures were maintained at 25° C. 2° C. under white fluorescent tube lights, 16/8 h (light/dark) photoperiod period, light intensity of 25 μE m^−2s^−1 and with 55-60% relative humidity. The cultures were subcultured at two-week intervals during stage 1, five-day intervals in stages 2 and 3, followed by one-week intervals in stages 4 and 5, with no subculturing in stage 6.

Compound	germination of embryos attached to the cotyledons (present in stage 1 medium)	phenolic exudates from the base of the shoot buds	further results
O=C(O)COc1ccc(Cl)cc1Cl [2,4-D, 2,4-dichlorophenoxy acetic acid]	–	–	callus formation (present in stage 1 medium, 6.78 μM): induced callus formation
O=C(O)Cc1c[nH]c2ccccc12 [IAA, indole 3-acetic acid]	–	–	root induction (in stage 6 medium, 5.7 μM): induced roots within one week
O=C(O)[C@@H]1CCCN1 [proline, L-proline]	inhibited germination of embryos	–	–
NC(=O)CC[C@H](N)C(=O)O [L-glutamine]	inhibited germination of embryos	–	–
CC1=CC(=O)CC(C)(C)[C@@]1(O)/C=C/C(C)=C\C(=O)O [ABA, abscisic acid]	inhibited germination of embryos	–	–
O=C1O[C@H]([C@@H](O)CO)C(O)=C1O [Asc, ascorbic acid]	–	prevented these phenolic exudates	–
NCC(=O)O [L-glycine]	–	prevented these phenolic exudates	–
O=[N+]([O-])[O-].[Ag+] [AgNO3]	–	prevented these phenolic exudates	–
